In patent US7998982B2, “Amide derivatives as TRPV1 antagonists” (Abbott Laboratories, priority 2007, dated 2011) one finds IC50 data, which are given here for 20 molecules.

SMILES strings stand for the structures.

T1 sequence (Q8NER1 whole entry): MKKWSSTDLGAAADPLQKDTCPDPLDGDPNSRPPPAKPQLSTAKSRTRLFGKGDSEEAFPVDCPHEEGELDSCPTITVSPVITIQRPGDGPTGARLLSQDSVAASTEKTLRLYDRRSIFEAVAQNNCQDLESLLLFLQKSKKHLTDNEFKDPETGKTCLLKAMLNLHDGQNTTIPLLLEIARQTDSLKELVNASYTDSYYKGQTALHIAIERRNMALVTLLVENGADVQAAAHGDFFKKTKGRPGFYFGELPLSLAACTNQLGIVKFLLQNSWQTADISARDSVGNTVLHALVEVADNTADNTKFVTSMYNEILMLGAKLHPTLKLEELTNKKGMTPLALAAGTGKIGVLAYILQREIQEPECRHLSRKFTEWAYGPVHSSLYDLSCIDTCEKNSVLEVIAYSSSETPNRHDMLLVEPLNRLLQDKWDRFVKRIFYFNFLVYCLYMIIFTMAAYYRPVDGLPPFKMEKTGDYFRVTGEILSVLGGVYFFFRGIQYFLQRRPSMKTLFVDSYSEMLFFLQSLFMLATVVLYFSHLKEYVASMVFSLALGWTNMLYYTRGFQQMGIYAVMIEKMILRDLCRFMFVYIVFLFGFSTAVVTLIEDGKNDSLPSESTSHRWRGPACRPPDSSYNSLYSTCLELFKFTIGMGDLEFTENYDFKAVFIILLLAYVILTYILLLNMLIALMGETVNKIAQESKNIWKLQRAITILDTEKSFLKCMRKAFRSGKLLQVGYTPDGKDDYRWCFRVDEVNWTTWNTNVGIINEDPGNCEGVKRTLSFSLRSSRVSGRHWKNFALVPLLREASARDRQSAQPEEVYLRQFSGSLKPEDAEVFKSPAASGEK

This assay addresses T1, human TRPV1 receptor (Homo sapiens, UniProt Q8NER1).
T1 construct: expressed in transfected cells
The assay is described as follows: Ca2+ influx assay (FLIPR, Fluo-4 AM) of capsaicin-evoked response in cells expressing recombinant TRPV1. The settings on record: 1321N1 human astrocytoma cells expressing hTRPV1; inhibition of 0.05 μM capsaicin-induced [Ca2+]i increase. The class given is cell-based. Here is the method: Dulbecco's modified Eagle medium (D-MEM) (with 4.5 mg/mL glucose) and fetal bovine serum were obtained from Hyclone Laboratories, Inc. (Logan, Utah). Dulbecco's phosphate-buffered saline (D-PBS) (with 1 mg/mL glucose and 3.6 mg/l Na pyruvate, without phenol red), L-glutamine, hygromycin B, and Lipofectamine® were obtained from Life Technologies (Grand Island, N.Y.). G418 sulfate was obtained from Calbiochem-Novabiochem Corp. (San Diego, Calif.). Capsaicin (8-methyl-N-vanillyl-6-nonenamide) was obtained from Sigma-Aldrich, Co. (St. Louis, Mo.). Fluo-4 AM (N-[4-[6-[(acetyloxy)methoxy]-2,7-difluoro-3-oxo-3H-xanthen-9-yl]-2-[2-[2-[bis[2-[(acetyloxy)methoxy]-2-oxyethyl]amino]-5-methylphenoxy]ethoxy]phenyl]-N-[2-[(acetyloxy)methoxy]-2-oxyethyl]-glycine, (acetyloxy)methyl ester) was purchased from Molecular Probes (Eugene, Oreg.).
The cDNAs for the human TRPV1 receptor were isolated by reverse transcriptase-polymerase chain reaction (RT-PCR) from human small intestine poly A+RNA supplied by Clontech (Palo Alto, Calif.) using primers designed surrounding the initiation and termination codons identical to the published sequences (Hayes et al. Pain 2000, 88, 205-215). The resulting cDNA PCR products were subcloned into pCIneo mammalian expression vector (Promega) and fully sequenced using fluorescent dye-terminator reagents (Prism, Perkin-Elmer Applied Biosystems Division) and a Perkin-Elmer Applied Biosystems Model 373 DNA sequencer or Model 310 genetic analyzer. Expression plasmids encoding the hTRPV1 cDNA were transfected individually into 1321N1 human astrocytoma cells using Lipofectamine®. Forty-eight hours after transfection, the neomycin-resistant cells were selected with growth medium containing 800 μg/mL Geneticin (Gibco BRL). Surviving individual colonies were isolated and screened for TRPV1 receptor activity. Cells expressing recombinant homomeric TRPV1 receptors were maintained at 37° C. in D-MEM containing 4 mM L-glutamine, 300 μg/mL G418 (Cal-biochem) and 10% fetal bovine serum under a humidified 5% CO2 atmosphere.
The functional activity of compounds at the TRPV1 receptor was determined with a Ca^2+ influx assay and measurement of intracellular Ca^2+ levels ([Ca^2+]i). All compounds were tested over an 11-point half-log concentration range. Compound solutions were prepared in D-PBS (4× final concentration), and diluted serially across 96-well v-bottom tissue culture plates using a Biomek 2000 robotic automation workstation (Beckman-Coulter, Inc., Fullerton, Calif.). A 0.2 μM solution of the TRPV1 agonist capsaicin was also prepared in D-PBS. The fluorescent Ca^2+ chelating dye Fluo-4 AM was used as an indicator of the relative levels of [Ca^2+]i in a 96-well format using a Fluorescence Imaging Plate Reader (FLIPR) (Molecular Devices, Sunnyvale, Calif.). Cells were grown to confluency in 96-well black-walled tissue culture plates. Then, prior to the assay, the cells were loaded with 100 μL per well of Fluo-4 AM (2 μM, in D-PBS) for 1-2 hours at 23° C. Washing of the cells was performed to remove extracellular Fluo-4 AM (2×1 mL D-PBS per well), and afterward, the cells were placed in the reading chamber of the FLIPR instrument. 50 μL of the compound solutions were added to the cells at the 10 second time mark of the experimental run. Then, after a 3-minute time delay, 50 μL of the capsaicin solution was added at the, 190 second time mark (0.05 μM final concentration)(final volume=200 μL) to challenge the TRPV1 receptor. Time length of the experimental run was 240 seconds. Fluorescence readings were made at 1 to 5 second intervals over the course of the experimental run. The peak increase in relative fluorescence units (minus baseline) was calculated from the 190 second time mark to the end of the experimental run, and expressed as a percentage of the 0.05 μM capsaicin (control) response. […]
In general, IC50 refers to the concentration that gives 50% inhibition. Take `Cc1cccnc1N1CC=C(C(=O)Nc2ccc(C(F)(F)F)cc2)[C@@H](C)C1` (single isomer, unassigned) [Example 9]: the 50% inhibitory concentration (IC50) came to 380 nM.
The value for `C[C@H]1CN(c2ncccc2C(F)(F)F)CC=C1C(=O)Nc1ccc(C(F)(F)F)cc1` (single isomer, unassigned) [Example 10] was 480 nM; that for `C[C@@H]1CN(c2ncccc2C(F)(F)F)CC=C1C(=O)Nc1ccc(S(=O)(=O)C(F)(F)F)cc1` (single isomer, unassigned) [Example 11] was 40 nM; that for `C[C@H]1CN(c2ncccc2C(F)(F)F)CC=C1C(=O)Nc1ccc(S(=O)(=O)C(F)(F)F)cc1` (single isomer, unassigned) [Example 12] was 640 nM.
With `C[C@@H]1CN(c2ncccc2C(F)(F)F)CC=C1C(=O)Nc1ccc(C(C)(C)C#N)cc1` (single isomer, unassigned) [Example 13] the figure was 89 nM; with `C[C@H]1CN(c2ncccc2C(F)(F)F)CC=C1C(=O)Nc1ccc(C(C)(C)C#N)cc1` (single isomer, unassigned) [Example 14], 710 nM.
For the molecule `Cc1cccnc1N1CC=C(C(=O)Nc2ccc(C(C)(C)C)cc2)[C@H](C)C1` (single isomer, unassigned) [Example 15], the IC50 amounted to 15 nM.
With `Cc1cccnc1N1CC=C(C(=O)Nc2ccc(C(C)(C)C)cc2)[C@@H](C)C1` (single isomer, unassigned) [Example 16] the figure was 620 nM.
The value for `Cc1cccnc1N1CC=C(C(=O)Nc2ccc(C(C)(C)C#N)cc2)[C@H](C)C1` (single isomer, unassigned) [Example 17] was 13 nM.
The value for `Cc1cccnc1N1CC=C(C(=O)Nc2ccc(C(F)(F)F)nc2)[C@H](C)C1` (single isomer, unassigned) [Example 19] was 190 nM.
For `Cc1cccnc1N1CC=C(C(=O)Nc2ccc(C(F)(F)F)nc2)[C@@H](C)C1` (single isomer, unassigned) [Example 20], the IC50 was 3100 nM.
`C[C@@H]1CN(c2ncccc2Cl)CC=C1C(=O)Nc1ccc(S(=O)(=O)C(F)(F)F)cc1` [Example 1, (3S)-3′-chloro-3-methyl-N-{4-[(trifluoromethyl)sulfonyl]phenyl}-3,6-dihydro-2H-1,2′-bipyridine-4-carboxamide]: the IC50 stood at 28 nM.
For the molecule `C[C@@H]1CN(c2ncccc2Cl)CC=C1C(=O)Nc1ccc(C(F)(F)F)cc1` [Example 2, (3S)-3′-chloro-3-methyl-N-[4-(trifluoromethyl)phenyl]-3,6-dihydro-2H-1,2′-bipyridine-4-carboxamide], the IC50 stood at 20 nM.
In the case of `Cc1cccnc1N1CC=C(C(=O)Nc2ccc(S(=O)(=O)C(F)(F)F)cc2)[C@H](C)C1` [Example 3, (3S)-3,3′-dimethyl-N-{4-[(trifluoromethyl)sulfonyl]phenyl}-3,6-dihydro-2H-1,2′-bipyridine-4-carboxamide], the IC50 stood at 20 nM.
The value for `C[C@@H]1CN(c2ncccc2C(F)(F)F)CC=C1C(=O)Nc1ccc(C(F)(F)F)cc1` [Example 4, (3S)-3-methyl-3′-(trifluoromethyl)-N-[4-(trifluoromethyl)phenyl]-3,6-dihydro-2H-1,2′-bipyridine-4-carboxamide] was 26 nM; that for `C[C@H]1CN(c2ncccc2Cl)CC=C1C(=O)Nc1ccc(S(=O)(=O)C(F)(F)F)cc1` [Example 5, (3R)-3′-chloro-3-methyl-N-{4-[(trifluoromethyl)sulfonyl]phenyl}-3,6-dihydro-2H-1,2′-bipyridine-4-carboxamide] was 230 nM.
In the case of `Cc1cccnc1N1CC=C(C(=O)Nc2ccc(S(=O)(=O)C(F)(F)F)cc2)[C@@H](C)C1` [Example 6, (3R)-3,3′-dimethyl-N-{4-[(trifluoromethyl)sulfonyl]phenyl}-3,6-dihydro-2H-1,2′-bipyridine-4-carboxamide], the IC50 worked out at 760 nM.
With `C[C@H]1CN(c2ncccc2Cl)CC=C1C(=O)Nc1ccc(C(F)(F)F)cc1` [Example 7, (3R)-3′-chloro-3-methyl-N-[4-(trifluoromethyl)phenyl]-3,6-dihydro-2H-1,2′-bipyridine-4-carboxamide] the figure was 84 nM.
With `Cc1cccnc1N1CC=C(C(=O)Nc2ccc(C(F)(F)F)cc2)[C@H](C)C1` [Example 8, (3S)-3,3′-dimethyl-N-[4-(trifluoromethyl)phenyl]-3,6-dihydro-2H-1,2′-bipyridine-4-carboxamide] the figure was 63 nM; with `Cc1cccnc1N1CC=C(C(=O)Nc2ccc(C(C)(C)C#N)cc2)[C@@H](C)C1` [Example 18, (3R)—N-(4-(2-cyanopropan-2-yl)phenyl)-3-methyl-1-(3-methylpyridin-2-yl)-1,2,3,6-tetrahydropyridine-4-carboxamide], 1300 nM.
